# The source made the active and inactive calls.
# How the values were obtained:
# [1] = molecular target: T1, Aminopeptidase N (Plasmodium falciparum FcB1/Columbia, UniProt O96935); assay: malaria alanyl aminopeptidase activity blockers – biochemical, fluorogenic H-Leu-NHMec substrate, 1536-well (AID 1445); set-up: species or system Plasmodium falciparum 3D7, 3D7
# T1 sequence (O96935 whole entry): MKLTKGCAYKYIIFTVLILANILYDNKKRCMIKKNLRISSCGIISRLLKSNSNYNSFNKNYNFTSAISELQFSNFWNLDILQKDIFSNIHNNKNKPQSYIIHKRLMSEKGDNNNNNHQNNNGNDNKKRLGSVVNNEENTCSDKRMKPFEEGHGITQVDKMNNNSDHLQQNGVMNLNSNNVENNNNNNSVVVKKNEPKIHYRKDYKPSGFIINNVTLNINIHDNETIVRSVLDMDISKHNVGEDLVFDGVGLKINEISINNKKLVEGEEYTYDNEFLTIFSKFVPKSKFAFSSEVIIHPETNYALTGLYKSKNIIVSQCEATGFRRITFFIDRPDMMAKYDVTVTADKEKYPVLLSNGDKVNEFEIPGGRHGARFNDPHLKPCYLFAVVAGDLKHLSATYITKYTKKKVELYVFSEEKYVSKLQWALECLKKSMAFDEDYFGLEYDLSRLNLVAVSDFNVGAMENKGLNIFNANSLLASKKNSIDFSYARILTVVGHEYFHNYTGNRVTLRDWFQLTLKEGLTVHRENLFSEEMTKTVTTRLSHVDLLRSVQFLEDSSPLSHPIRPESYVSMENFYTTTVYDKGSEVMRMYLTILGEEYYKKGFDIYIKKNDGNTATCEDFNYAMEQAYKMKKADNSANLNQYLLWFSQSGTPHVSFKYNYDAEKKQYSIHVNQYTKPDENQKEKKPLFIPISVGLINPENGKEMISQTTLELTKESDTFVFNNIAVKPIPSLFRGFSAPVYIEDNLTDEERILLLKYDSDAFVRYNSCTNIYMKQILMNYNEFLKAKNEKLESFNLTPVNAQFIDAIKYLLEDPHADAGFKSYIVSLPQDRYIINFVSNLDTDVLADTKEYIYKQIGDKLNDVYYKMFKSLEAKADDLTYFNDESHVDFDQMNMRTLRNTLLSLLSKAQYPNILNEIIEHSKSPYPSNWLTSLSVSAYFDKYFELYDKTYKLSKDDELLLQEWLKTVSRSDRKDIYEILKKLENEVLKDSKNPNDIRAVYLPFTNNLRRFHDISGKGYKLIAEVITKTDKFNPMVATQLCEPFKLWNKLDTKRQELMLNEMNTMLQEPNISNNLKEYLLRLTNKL
# [2] = molecular target: T2, Tyrosyl-DNA phosphodiesterase 2 (Homo sapiens, UniProt O95551); assay: potency against TDP2 phosphodiesterase activity – biochemical, epi absorbance, IC50, dose response (AID 743297)
# T2 sequence (O95551 whole entry): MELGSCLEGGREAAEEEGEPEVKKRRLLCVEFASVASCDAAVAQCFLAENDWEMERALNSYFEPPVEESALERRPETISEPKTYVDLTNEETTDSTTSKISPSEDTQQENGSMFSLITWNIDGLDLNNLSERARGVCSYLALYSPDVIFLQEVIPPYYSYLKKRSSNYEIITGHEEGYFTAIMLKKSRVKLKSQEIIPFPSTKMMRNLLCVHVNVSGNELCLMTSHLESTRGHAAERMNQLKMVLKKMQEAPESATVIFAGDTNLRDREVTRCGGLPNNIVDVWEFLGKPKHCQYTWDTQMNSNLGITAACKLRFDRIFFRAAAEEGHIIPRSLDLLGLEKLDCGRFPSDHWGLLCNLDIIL
# [3] = molecular target: T3, Oxysterols receptor LXR-beta (Homo sapiens, UniProt P55055); type: functional, cell-based;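 further: agonist activity at LXR measured by a cell-based luminescence readout across a dose range, run as a counterscreen for daf-12 agonists; HEK293 cells with Gal4-LXR fusion and GAL4-driven luciferase reporter; potency for activation of Gal4-LXR reporter so compounds are agonists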
# T3 sequence (P55055 whole entry): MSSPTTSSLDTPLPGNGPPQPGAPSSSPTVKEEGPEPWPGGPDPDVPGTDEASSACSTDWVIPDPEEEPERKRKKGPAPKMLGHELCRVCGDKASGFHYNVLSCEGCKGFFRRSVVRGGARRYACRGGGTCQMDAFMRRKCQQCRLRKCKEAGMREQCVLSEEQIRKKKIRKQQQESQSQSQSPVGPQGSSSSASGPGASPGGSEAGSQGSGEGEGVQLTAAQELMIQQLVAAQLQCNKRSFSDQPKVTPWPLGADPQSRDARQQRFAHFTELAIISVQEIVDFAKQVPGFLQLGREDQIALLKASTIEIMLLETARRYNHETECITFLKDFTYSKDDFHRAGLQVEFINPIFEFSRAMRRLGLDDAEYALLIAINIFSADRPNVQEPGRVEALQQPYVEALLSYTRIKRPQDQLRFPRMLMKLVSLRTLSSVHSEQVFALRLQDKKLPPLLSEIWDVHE
# [4] = inhibition of ADAM10 peptide cleavage – biochemical, FRET peptide substrate, recombinant human ADAM10, selectivity assay for ADAM17 exosite inhibitor project, dose response (AID 743259);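 further: ADAM10 enzyme cleaving a FRET peptide substrate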
# [5] = loss of viability in HepG2 cells – cell-based, CellTiter-Glo, cherry-picked, cytotoxicity control for Shn3 inhibitor project, dose response (AID 624134); type: functional
# [6] = reduction of Shn3 3'UTR-driven luciferase in osteoblasts – cell-based, Clone20 osteoblasts, firefly luciferase, cherry-picked, dose response (AID 624132); type: functional;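 further: firefly luciferase luminescence from reporter carrying the Shn3 3'UTR in osteoblasts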
# [7] = system: H9c2; assay: cells; type: functional, cell-based; conditions: Rattus norvegicus, H9c2, Myocardium;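 further: confirmatory concentration-response retest of ultra-high-throughput screening hits for modulation of myocardial damage; cell death induced by hydrogen peroxide oxidative stress; compound pretreatment for 60 min then peroxide exposure for 2 h; potency is for protecting the cells against peroxide damage rather than for killing them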
# [8] = molecular target: Disintegrin and metalloproteinase domain-containing protein 17 (Homo sapiens, UniProt P78536); assay: exosite inhibitors of ADAM17, dose response, biochemical (AID 743260)
# Chain of Disintegrin and metalloproteinase domain-containing protein 17 (P78536 whole entry, the tested form may be a part): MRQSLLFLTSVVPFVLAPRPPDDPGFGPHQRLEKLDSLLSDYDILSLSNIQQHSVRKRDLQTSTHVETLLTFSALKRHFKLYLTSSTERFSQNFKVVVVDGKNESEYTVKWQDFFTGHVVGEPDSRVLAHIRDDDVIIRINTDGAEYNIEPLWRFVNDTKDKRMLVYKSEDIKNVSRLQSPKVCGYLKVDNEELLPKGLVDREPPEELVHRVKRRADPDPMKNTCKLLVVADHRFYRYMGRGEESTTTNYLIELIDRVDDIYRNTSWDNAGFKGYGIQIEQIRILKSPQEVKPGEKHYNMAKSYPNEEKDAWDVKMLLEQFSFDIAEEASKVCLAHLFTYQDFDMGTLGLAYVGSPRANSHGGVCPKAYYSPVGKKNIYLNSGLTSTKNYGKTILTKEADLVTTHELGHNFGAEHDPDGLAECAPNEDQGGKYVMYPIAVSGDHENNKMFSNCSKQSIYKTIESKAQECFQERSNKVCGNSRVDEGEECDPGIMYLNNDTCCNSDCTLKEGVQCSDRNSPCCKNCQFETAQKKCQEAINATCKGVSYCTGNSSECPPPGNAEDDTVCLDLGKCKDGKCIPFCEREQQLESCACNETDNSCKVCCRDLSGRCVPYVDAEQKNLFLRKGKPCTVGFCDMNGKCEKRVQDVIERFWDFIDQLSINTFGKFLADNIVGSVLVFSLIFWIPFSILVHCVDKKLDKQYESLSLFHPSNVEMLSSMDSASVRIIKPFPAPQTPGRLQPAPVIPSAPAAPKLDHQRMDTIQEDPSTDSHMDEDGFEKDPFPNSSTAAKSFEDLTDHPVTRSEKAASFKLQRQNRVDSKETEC
# [9] = blockers of HIV-1 ZM109 envelope-driven cell-cell fusion – HeLa effector, CEM target cells, luciferase, cherry-pick, dose response (AID 652058); type: functional, cell-based;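 further: luciferase signal from HIV-1 Env mediated cell-cell fusion of effector and target cells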
# [10] = HIV-1 AD8 envelope cell-cell fusion blockers – cherry-pick, dose response (AID 652062); type: functional, cell-based;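 further: luciferase signal from cell-cell fusion driven by HIV-1 clade B AD8 Env; potency is for inhibitors of fusion seen as a drop in luminescence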
# [11] = off-target signal loss in HeLa-CEM21 co-culture – HeLa F-luc CTL cells, cherry-picked, counter-screen for HIV-1 Env fusion inhibitor project, dose response (AID 652040); type: functional, cell-based;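 further: potency for signal decrease marking cytotoxic or nonspecific inhibition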
# [12] = viability loss in CEM21 cells – cell-based, CellTiter-Glo luminescence, cherry-picked, cytotoxicity control for viral fusion inhibitor project, dose response (AID 652042); type: functional;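 further: potency for signal decrease meaning cytotoxicity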
# [13] = blockers of HIV-1 envelope-mediated cell-cell fusion – cherry-pick, dose response (AID 652057); type: functional, cell-based
# [14] = toxicity toward HepG2 liver cells – cell-based, plate reader, cherry-pick, antagonist series, cytotoxicity control, dose response (AID 743416); type: functional
# [15] = system: BJ; assay: BJ-TERT-LT-ST fibroblast viability loss – cell-based, RAS-independent, luminescence, dose response (AID 1935); type: functional; conditions: Homo sapiens;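 further: BJ fibroblasts immortalized with TERT plus LT and ST oncogenes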
# [16] = Luminescence Cell-Based Dose Confirmation HTS to Identify Inhibitors of Platelet Dense Granule Release. [Related pubchem assays: 1663 (Primary HTS), 1678 (Summary of Project)]; type: functional
# [17] = viability loss in HEK293 cells – cell-based, plate reader, cherry-picked samples, cytotoxicity control, dose response (AID 743446); type: functional
# [18] = A549 cell cytotoxicity, dose response, cytotoxicity control, plate reader, cherry-pick, antagonist series (AID 743412); type: functional, cell-based
# [19] = DRD fibroblast viability loss – cell-based, non-viral oncogenic, luminescence, dose response (AID 1934); type: functional; conditions: Homo sapiens
# [20] = molecular target: Luciferin 4-monooxygenase (Photinus pyralis, UniProt P08659); assay: inhibition of purified Photinus pyralis luciferase – biochemical, luminescence, dose response (AID 1891)
# Chain of Luciferin 4-monooxygenase (P08659 whole entry): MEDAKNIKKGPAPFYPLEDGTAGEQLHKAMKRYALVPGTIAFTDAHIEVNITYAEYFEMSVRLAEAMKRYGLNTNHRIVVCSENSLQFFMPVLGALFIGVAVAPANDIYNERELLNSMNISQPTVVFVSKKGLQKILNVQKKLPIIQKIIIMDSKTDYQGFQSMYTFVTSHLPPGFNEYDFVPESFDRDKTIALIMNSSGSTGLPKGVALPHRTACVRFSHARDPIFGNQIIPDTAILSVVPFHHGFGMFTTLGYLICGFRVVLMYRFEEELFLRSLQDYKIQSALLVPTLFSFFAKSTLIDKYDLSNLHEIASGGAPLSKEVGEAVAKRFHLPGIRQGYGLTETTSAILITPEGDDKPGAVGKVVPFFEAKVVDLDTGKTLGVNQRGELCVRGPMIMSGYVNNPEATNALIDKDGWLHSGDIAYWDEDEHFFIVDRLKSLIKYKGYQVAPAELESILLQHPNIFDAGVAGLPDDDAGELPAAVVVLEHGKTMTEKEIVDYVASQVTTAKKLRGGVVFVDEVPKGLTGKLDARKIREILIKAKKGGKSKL
# [21] = system: BJ; assay: cells; type: functional, cell-based; conditions: Homo sapiens
# [22] = blockade of melanocortin 4 receptor signaling – cell-based, plate reader, cherry pick, counter-screen for LGR2 antagonist project, dose response (AID 743444); type: functional;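 further: transfected HEK 293 cells stimulated with alpha-MSH peptide; potency of inhibitors of the alpha-MSH evoked signal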
# [23] = blockers of bursicon-stimulated LGR2 cAMP reporter – cell-based, HEK293, CRE-luciferase reporter, cherry pick, set 2, dose response (AID 743343); type: functional;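 further: transfected cells were stimulated with diluted bursicon conditioned medium after compound addition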
# [24] = system: BJ; assay: BJ-TERT fibroblast viability loss – cell-based, RAS-independent, luminescence, dose response (AID 1933); type: functional; conditions: Homo sapiens
smiles,measurement,setting,value
CCCCn1c(NS(=O)(=O)c2ccccc2)c(C(=O)OCC)c2nc3ccccc3nc21,IC50,[1],74.4 µM (active)
same,IC50,[2],> 128 µM (inactive)
Cc1nc2sc(-c3ccccc3)nn2c(=O)c1Br,EC50,[3],> 67.5 µM (inactive)
COc1ccc(OC)c(NC(=O)COC(=O)c2c3c(nc4ccccc24)CCCC3)c1,IC50,[4],> 69.5 µM (inactive)
same,AC50,[5],> 70 µM (inactive)
same,AC50,[6],8.67 µM (active)
same,IC50,[7],> 79 µM (inactive)
same,IC50,[8],> 69.5 µM (inactive)
CC(C)Oc1cc(O)c2c(=O)c(-c3ccc(O)cc3)coc2c1,EC50,[3],> 67.6 µM (inactive)
Cc1cc(OCC(O)CNC(C)c2ccccc2)ccc1C(C)C (stereo not given),AC50,[9],1.85 µM (active)
same,AC50,[10],7.78 µM (active)
same,AC50,[11],3.99 µM (active)
same,AC50,[12],13.3 µM (active)
same,AC50,[13],2.75 µM (active)
COc1ccc(-c2ccc(SC)nn2)cc1,AC50,[14],8.69 µM (active)
same,EC50,[15],15.7 µM (active)
same,EC50,[16],1.98 µM (active)
same,AC50,[17],8.72 µM (active)
same,AC50,[18],14.4 µM (active)
same,EC50,[19],6.25 µM (active)
same,EC50,[20],1.1 µM (active)
same,EC50,[21],6.55 µM (active)
same,AC50,[22],6.62 µM (active)
same,AC50,[23],5.07 µM (active)
same,EC50,[24],6.75 µM (active)
